For orientation: IC50 means the concentration at which inhibition is half-maximal.

In patent publication US11446287B2, “Compounds and methods for EP300 or CBP modulation and indications therefor” (Opna Immuno-Oncology SA, priority 2019, dated 2022) one finds IC50 data, which are given here for 23 molecules.

This test addresses T1, Recombinant human BRD4 containing dual bromodomains (BRD4-BD12 (1-477)) (Homo sapiens, UniProt O60885).
T1 construct: Recombinant human BRD4 containing dual bromodomains (BRD4-BD12 (1-477)); made in house; host or cells: E. coli BL21-CodonPlus (DE3), modified pET vector
Kind of test: BRD4 Alphascreen binding assay. The protocol: BRD4 Alphascreen Binding Assay
Binding of compounds of Formula (I) with BRD4 was assessed using Alphascreen binding assay. The inhibition of the interaction between BRD4 and its acetylated target protein was measured quantitatively using recombinant BRD4 protein, an acetylated Histone 4 peptide, and AlphaScreen™ technology. In absence of inhibition of the BRD4 protein bound to AlphaScreen™ nickel chelate acceptor beads can interact with the acetylated Histone 4 peptide which was immobilized by the AlphaScreen™ Streptavidin coated beads. This interaction brings donor and acceptor beads in proximity. The close proximity allows the singlet oxygen produced by laser excitation of the donor beads to reach the acceptor beads and generate a luminescence signal. BRD4 inhibitors result in a decrease in the proximity signal through an inhibition of the BRD4—acetylated peptide interaction.
Recombinant human BRD4 containing dual bromodomains (BRD4-BD12 (1-477)) was prepared and purified as described in protein expression and purification session. The peptide was human Histone H41-21K5AcK8AcK12AcK16Ac-Biotin (Anaspec CA, USA).
Protocol for BRD4 assay: All components are prepared in buffer composed of 50 mM HEPES pH 7.5, 50 mM NaCl, 0.01% BSA, 0.01% Triton X-100, 2 mM DTT. Test compounds and DMSO vehicle are diluted 1:50 in buffer and a 4 μL volume was transferred to an Alphaplate. 5.5 μL of Bromodomain protein and 5.5 μL of peptide are added to wells containing 4 μL of various concentrations of test compounds of Formula (I) or DMSO vehicle in an Alphaplate (PerkinElmer GA, USA) and incubated for 1 hour at room temperature. 5 μL donor and acceptor bead mixture was then added with final concentrations of 7.5 μg/ml. 30 minutes after bead addition, Alpha signal was read on the Envision spectrometer (λEx 680 nm, λEm 520-620 nm). Final concentrations of bromodomain proteins and peptide are as shown below.
All data were normalized to the mean of 16 high and 16 low control wells on each plate. A four parameter curve fit of the following formula was then applied: Y=A+((B−A)/(1+((C/x)^D))) Where ‘A’ is the minimum, ‘B’ is the maximum, ‘C’ is the IC50 and ‘D’ is the Hill slope. Protein Expression and Purification
Recombinant human BRD4 containing dual bromodomains (BRD4-BD12 (1-477)) was expressed in E. coli cells (in a modified pET vector) with an N-terminal six-His tag and purified using a combination of both IMAC (Ni-affinity) and size exclusion chromatography steps.
Recombinant BRD4 was expressed using the E. coli strain BL21-CodonPlus (DE3) (Agilent Technologies CA, USA). Cells were grown in Terrific Broth (TB) media to an OD600 of 2.0 at 37° C. at which temperature was reduced to 18° C., protein was induced with 0.1 mM isopropyl-β-D-thiogalactopyranoside (“IPTG”) for 12-18 hours and harvested by centrifugation at 8000×g for 20 minutes. Cells were re-suspended in 40 mM Tris-HCl pH 8.0, 0.5 M NaCl, 25 mM Imidazole, 5% glycerol, 1/200 vol. Protease Inhibitor Cocktail Set III (Calbiochem), 5 mM beta-mercaptoethanol (“BME”), 0.5 mg/mL Lysozyme, and 0.5 mg/mL DNaseI, incubated on ice for 30 minutes and lysed with a cell disruptor (MicroFluidics MA, USA). The lysate was clarified by centrifugation at 20,000×g for 2 hours. The protein was captured with Ni-NTA resin (Life Technologies, USA). Contaminating proteins were washed off with 40 mM Tris-HCl pH 8.0, 0.5 M NaCl, 25 mM Imidazole, 5% glycerol, and 5 mM BME. Following 3× wash steps, protein was eluted step wise into wash buffer containing 50, 100, 150, 500 mM Imidazole. The protein was further purified using Gel Filtration column 16/60 Superdex 200 (GE Biosciences NJ, USA) in 10 mM HEPES pH 8.0, 150 mM NaCl, and 5 mM DTT. Glycerol was added to a final concentration of 12% and the protein was aliquoted and flash-frozen in liquid Nitrogen.
(Alpha assays give light when donor and acceptor beads are brought close together.)

Turning to `CCOc1cc(C(=O)O)ccc1-c1cn([C@@H](C)c2ccccn2)c2ncc(-c3c(C)noc3C)cc12` [P-0114, (S)-4-(5-(3,5-dimethylisoxazol-4-yl)-1-(1-(pyridin-2-yl)ethyl)-1H-pyrrolo[2,3-b]pyridin-3-yl)-3-ethoxybenzoic acid], the IC50 lay within 8 to 1000 µM.

Take `Cc1noc(C)c1-c1cnc2c(c1)c(-c1ccc(C(=O)O)cc1OCC(F)(F)F)cn2[C@@H](C)c1ccccn1` [P-0115, (S)-4-(5-(3,5-dimethylisoxazol-4-yl)-1-(1-(pyridin-2-yl)ethyl)-1H-pyrrolo[2,3-b]pyridin-3-yl)-3-(2,2,2-trifluoroethoxy)benzoic acid]: the IC50 lay in the range of 8 to 1000 µM.

With `Cc1noc(C)c1-c1cnc2c(c1)c(-c1ccc(C(=O)O)cc1C(F)(F)F)cn2[C@@H](C)c1ccccn1` [P-0116, (S)-4-(5-(3,5-dimethylisoxazol-4-yl)-1-(1-(pyridin-2-yl)ethyl)-1H-pyrrolo[2,3-b]pyridin-3-yl)-3-(trifluoromethyl)benzoic acid], the IC50 was 1 to 8 µM.

With `CCCOc1cc(C(=O)O)cc(OCCC)c1-c1cn([C@@H](C)c2ccccn2)c2ncc(-c3c(C)noc3C)cc12` [P-0117, (S)-4-(5-(3,5-dimethylisoxazol-4-yl)-1-(1-(pyridin-2-yl)ethyl)-1H-pyrrolo[2,3-b]pyridin-3-yl)-3,5-dipropoxybenzoic acid], the IC50 is 1 to 8 µM.

For the molecule `Cc1noc(C)c1-c1cnc2c(c1)c(-c1c(OC(C)C)cc(C(=O)O)cc1OC(C)C)cn2[C@@H](C)c1ccccn1` [P-0118, (S)-4-(5-(3,5-dimethylisoxazol-4-yl)-1-(1-(pyridin-2-yl)ethyl)-1H-pyrrolo[2,3-b]pyridin-3-yl)-3,5-diisopropoxybenzoic acid], the IC50 lay in the range of 8 to 1000 µM.

As for `COc1cc(C(=O)O)cc(OC)c1-c1cn(C(C)c2ccccc2)c2cc(-c3c(C)noc3C)cnc12` (centres unmarked) [P-0119, 4-(6-(3,5-dimethylisoxazol-4-yl)-1-(1-phenylethyl)-1H-pyrrolo[3,2-b]pyridin-3-yl)-3,5-dimethoxybenzoic acid], the IC50 fell in the range of 1 to 8 µM.

On to `Cc1noc(C)c1-c1cnc2c(-c3ccccc3C(=O)O)cn(C(C)c3ccccc3)c2c1` (centres unmarked) [P-0120, 2-(6-(3,5-dimethylisoxazol-4-yl)-1-(1-phenylethyl)-1H-pyrrolo[3,2-b]pyridin-3-yl)benzoic acid], for which the IC50 was 1 to 8 µM.

For `Cc1noc(C)c1-c1cnc2c(C(=O)C3CCC3)cn(-c3c(Cl)cc(C(=O)O)cc3Cl)c2c1` [P-0121, 3,5-dichloro-4-(3-(cyclobutanecarbonyl)-6-(3,5-dimethylisoxazol-4-yl)-1H-pyrrolo[3,2-b]pyridin-1-yl)benzoic acid], the IC50 was 1 to 8 µM.

Take `Cc1noc(C)c1-c1cnc2c(c1)c(-c1cccc(C(=O)O)n1)cn2C(C)c1ccccn1` (centres unmarked) [P-0122, 6-(5-(3,5-dimethylisoxazol-4-yl)-1-(1-(pyridin-2-yl)ethyl)-1H-pyrrolo[2,3-b]pyridin-3-yl)picolinic acid]: the IC50 was in the range of 8 to 1000 µM.

Consider `Cc1noc(C)c1-c1cnc2c(c1)c(-c1ccc(C(=O)O)cn1)cn2C(C)c1ccccn1` (centres unmarked) [P-0123, 6-(5-(3,5-dimethylisoxazol-4-yl)-1-(1-(pyridin-2-yl)ethyl)-1H-pyrrolo[2,3-b]pyridin-3-yl)nicotinic acid], for which the IC50 is 8 to 1000 µM.

As to `Cc1noc(C)c1-c1cnc2c(c1)c(-c1cc(C(=O)O)ccn1)cn2C(C)c1ccccn1` (centres unmarked) [P-0124, 2-(5-(3,5-dimethylisoxazol-4-yl)-1-(1-(pyridin-2-yl)ethyl)-1H-pyrrolo[2,3-b]pyridin-3-yl)isonicotinic acid], the IC50 is 8 to 1000 µM.

On to `Cc1noc(C)c1-c1cnc2c(c1)c(-c1ccc(F)c(C(=O)O)c1F)cn2[C@@H](C)c1ccccn1` [P-0125, (S)-3-(5-(3,5-dimethylisoxazol-4-yl)-1-(1-(pyridin-2-yl)ethyl)-1H-pyrrolo[2,3-b]pyridin-3-yl)-2,6-difluorobenzoic acid], for which the IC50 was 8 to 1000 µM.

As to `Cc1noc(C)c1-c1cnc2c(c1)c(-c1ccnc(C(=O)O)n1)cn2C(C)c1ccccn1` (centres unmarked) [P-0126, 4-(5-(3,5-dimethylisoxazol-4-yl)-1-(1-(pyridin-2-yl)ethyl)-1H-pyrrolo[2,3-b]pyridin-3-yl)pyrimidine-2-carboxylic acid], the IC50 lay within 8 to 1000 µM.

Regarding `CCCOc1cc(C(=O)O)cc(OCCC)c1-n1cc(CC2CCC2)c2ncc(-c3c(C)noc3C)cc21` [P-0127, 4-(3-(cyclobutylmethyl)-6-(3,5-dimethylisoxazol-4-yl)-1H-pyrrolo[3,2-b]pyridin-1-yl)-3,5-dipropoxybenzoic acid], the IC50 was 8 to 1000 µM.

Turning to `Cc1noc(C)c1-c1cnc2c(Cc3cccc(Cl)c3)cn(-c3c(Cl)cc(C(=O)O)cc3Cl)c2c1` [P-0128, 3,5-dichloro-4-(3-(3-chlorobenzyl)-6-(3,5-dimethylisoxazol-4-yl)-1H-pyrrolo[3,2-b]pyridin-1-yl)benzoic acid], the IC50 lay in the range of 1 to 8 µM.

For the molecule `Cc1noc(C)c1-c1cnc2c(C(=O)c3cccc(OC(F)F)c3)cn(-c3c(Cl)cc(C(=O)O)cc3Cl)c2c1` [P-0129, 3,5-dichloro-4-(3-(3-(difluoromethoxy)benzoyl)-6-(3,5-dimethylisoxazol-4-yl)-1H-pyrrolo[3,2-b]pyridin-1-yl)benzoic acid], the IC50 lay within 1 to 8 µM.

With `Cc1noc(C)c1-c1cnc2c(CC3CCC3)cn(-c3ccc([N+](=O)[O-])cc3F)c2c1` [P-0130, 4-(3-(cyclobutylmethyl)-1-(2-fluoro-4-nitrophenyl)-1H-pyrrolo[3,2-b]pyridin-6-yl)-3,5-dimethylisoxazole], the IC50 was in the range of 8 to 1000 µM.

As to `Cc1noc(C)c1-c1cnc2c(Cc3ccccc3Cl)cn(-c3c(Cl)cc(C(=O)O)cc3Cl)c2c1` [P-0131, 3,5-dichloro-4-(3-(2-chlorobenzyl)-6-(3,5-dimethylisoxazol-4-yl)-1H-pyrrolo[3,2-b]pyridin-1-yl)benzoic acid], the IC50 lay within 1 to 8 µM.

Turning to `Cc1noc(C)c1-c1cnc2c(Cc3cccc(OCc4ccccc4)c3)cn(-c3c(Cl)cc(C(=O)O)cc3Cl)c2c1` [P-0132, 4-(3-(3-(benzyloxy)benzyl)-6-(3,5-dimethylisoxazol-4-yl)-1H-pyrrolo[3,2-b]pyridin-1-yl)-3,5-dichlorobenzoic acid], the IC50 fell in the range of 8 to 1000 µM.

Regarding `Cc1noc(C)c1-c1cnc2c(C(=O)c3cccc(OCc4ccccc4)c3)cn(-c3c(Cl)cc(C(=O)O)cc3Cl)c2c1` [P-0133, 4-(3-(3-(benzyloxy)benzoyl)-6-(3,5-dimethylisoxazol-4-yl)-1H-pyrrolo[3,2-b]pyridin-1-yl)-3,5-dichlorobenzoic acid], the concentration for half-maximal inhibition (IC50) was 1 to 8 µM.

Regarding `COc1ccc(-n2cc(CC3CCC3)c3ncc(-c4c(C)noc4C)cc32)cn1` [P-0134, 4-(3-(cyclobutylmethyl)-1-(6-methoxypyridin-3-yl)-1H-pyrrolo[3,2-b]pyridin-6-yl)-3,5-dimethylisoxazole], the IC50 fell in the range of 8 to 1000 µM.

With `COc1cc(C(=O)O)cc(OCc2ccccc2)c1-c1cn([C@@H](C)c2ccccn2)c2ncc(-c3c(C)noc3C)cc12` [P-0135, (S)-3-(benzyloxy)-4-(5-(3,5-dimethylisoxazol-4-yl)-1-(1-(pyridin-2-yl)ethyl)-1H-pyrrolo[2,3-b]pyridin-3-yl)-5-methoxybenzoic acid], the IC50 was 8 to 1000 µM.

Take `COc1c(C(=O)O)cccc1-c1cn(C(C)c2ccccc2)c2cc(-c3c(C)noc3C)cnc12` (centres unmarked) [P-0136, 3-(6-(3,5-dimethylisoxazol-4-yl)-1-(1-phenylethyl)-1H-pyrrolo[3,2-b]pyridin-3-yl)-2-methoxybenzoic acid]: the IC50 was in the range of 0.0001 to 1 µM.
